Our source for the IC50 values is patent publication US4539322A, “Dihydropyridine derivatives and their use in treating heart conditions and hypertension” (Pfizer Inc., priority 1982, dated 1985).

This assay deals with rat aorta. Kind of assay: Inhibition of calcium-induced contraction of isolated rat aorta strips (reduction of response to added calcium chloride in K+-containing saline). The format is cell-based. The following applies: 0.75 h; spirally cut rat aorta strips, 45 millimolar potassium, calcium 2 millimolar, test repeated with compound after 45 minutes; read-out: molar concentration of the compounds required to reduce the response by 50% (IC50). The method, then:
The ability of the compounds to inhibit the movement of calcium into the cell is shown by their effectiveness in reducing the response of isolated heart tissue to an increase in calcium ion concentration in vitro. The test is performed by mounting spirally cut strips of rat aorta with one end fixed and the other attached to a force transducer. The tissue is immersed in a bath of physiological saline solution containing potassium ion s at a concentration of 45 millimolar and no calcium. Calcium chloride is added to the bath with a pipette to give a final calcium ion concentration of 2 millimolar. The change in tension caused by the resulting contraction of the tissue is noted. The bath is drained and replaced with fresh saline solution and, after 45 minutes, the test is repeated with the particular compound under test present in the saline solution. The concentration of compound required to reduce the response by 50% is recorded.
For the molecule `CCOC(=O)C1=C(COCCN2CCN(C(=O)NC)CC2)NC(C)=C(C(=O)OC)C1c1ccccc1Cl` (centres unmarked) [Example 13], the IC50 is 0.006 µM.
Take `CCOC(=O)C1=C(COCCN2CCN(C(=NC#N)NCCN(C)C)CC2)NC(C)=C(C(=O)OC)C1c1ccccc1Cl` (centres unmarked) [Example 6]: the IC50 came to 0.1 µM.
Then `CCOC(=O)C1=C(COCCN2CCN(C(=O)NC)CC2)NC(C)=C(C(=O)OC)C1c1c(Cl)cccc1Cl` (centres unmarked) [Example 33], with 0.025 µM; and `CCOC(=O)NC(=S)N1CCN(CCOCC2=C(C(=O)OCC)C(c3ccccc3Cl)C(C(=O)OC)=C(C)N2)CC1` (centres unmarked) [Example 11], with 0.0138 µM.
In the case of `CCOC(=O)C1=C(COCCN2CCN(S(=O)(=O)N(C)C)CC2)NC(C)=C(C(=O)OC)C1c1ccccc1Cl` (centres unmarked) [Example 42], the IC50 is 0.049 µM.
On to `CCOC(=O)C1=C(COCCN2CCN(C(=O)c3cccnc3)CC2)NC(C)=C(C(=O)OC)C1c1ccccc1Cl` (centres unmarked) [Example 48], for which the IC50 was determined as 0.0132 µM.
For the molecule `CCOC(=O)C1=C(COCCN2CCN(C(=O)NC)CC2)NC(C)=C(C(=O)OC)C1c1ccccc1F` (centres unmarked) [Example 35], the IC50 was 0.0195 µM.
For `CCOC(=O)C1=C(COCC(C)(C)N2CCNCC2)NC(C)=C(C(=O)OC)C1c1ccccc1Cl` (centres unmarked) [Example 56], the IC50 worked out at 0.34 µM.
Take `CCOC(=O)C1=C(COCC(C)(C)N2CCN(C(=O)NC)CC2)NC(C)=C(C(=O)OC)C1c1ccccc1Cl` (centres unmarked) [Example 29]: the IC50 was 0.015 µM.
For `CCOC(=O)C1=C(COCCN2CCN(C(=O)c3ccco3)CC2)NC(C)=C(C(=O)OC)C1c1ccccc1Cl` (centres unmarked) [Example 44], the IC50 is 0.0851 µM.
As to `CCOC(=O)C1=C(COCCN2CCN(C(=O)NC(C)(C)C)CC2)NC(C)=C(C(=O)OC)C1c1ccccc1Cl` (centres unmarked) [Example 12], the IC50 was found to be 0.002 µM.
With `CCOC(=O)C1=C(COCCN2CCN(C(=NC#N)NC)CC2)NC(C)=C(C(=O)OC)C1c1cccc(Cl)c1Cl` (centres unmarked) [Example 9] the figure was 0.0151 µM; with `CCOC(=O)C1=C(COCCN2CCN(C(=NC#N)N3CCCC3)CC2)NC(C)=C(C(=O)OC)C1c1ccccc1Cl` (centres unmarked) [Example 2], 0.014 µM.
As to `CCOC(=O)C1=C(COCCN2CCN(C(=O)N3CCOCC3)CC2)NC(C)=C(C(=O)OC)C1c1ccccc1Cl` (centres unmarked) [Example 50], the IC50 was 0.0059 µM.
